Starred links: 1 amine or outer side, 2 acyl side, 3 side chain; linkers in the order of their positions; H or OH if unused. Positions of bridges follow the written chain, without caps; N, C: chain ends. Non-standard residues stand in square brackets, D forms with d. Residues, ends and D or L forms follow the SMILES beside them. *: point of attachment. X1 = NC1=N[C@@H]([C@H](N[*:1])C(=O)[*:2])C[C@H](O)N1; ΔAla(Z-3-ureido) = NC(=O)N/C=C(\N)C(=O)O; β3hOrn = NCCC[C@H](N)CC(=O)*; Dap = NC[C@H](N)C(=O)O
Tested on: human maximum recommended daily dose, FDA database
Assay: DSSTox (FDAMDD) FDA Maximum (Recommended) Daily Dose Database
Settings: hits give low values
Method in brief: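 MRDD values come from clinical trials with daily oral dosing, usually for 3–12 months, for the average adult, in mg/day converted to mg/kg-bw/day assuming 60 kg. Antineoplastic mg/m2 doses are divided by 37. Activity score maps log10(1/MRDD mmol) onto 1–100.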

[1] = TherapeuticCategory: antineoplastic
[2] = TherapeuticCategory: antibacterial

Q: Which maximum recommended daily dose (mmol/kg-bw/day) (TherapeuticCategory: anabolic, antidepressant, serotonin inhibitor) does the source give for `CN1CCC(=C2c3ccccc3CCc3sccc32)CC1` here?
A: 0.000169

Q: With `CCN(CC)C(=O)C1CN2CCc3cc(OC)c(OC)cc3C2CC1OC(C)=O` (stereo unspecified) as the molecule, how does the maximum recommended daily dose (mmol/kg-bw/day) (TherapeuticCategory: antipsychotic, antiemeic) read?
A: 0.00103

Q: `CO[C@H](C(=O)[C@@H](O)[C@@H](C)O)C1Cc2cc3cc(O[C@H]4C[C@@H](O[C@H]5C[C@@H](O)[C@H](O)[C@@H](C)O5)[C@@H](O)[C@@H](C)O4)c(C)c(O)c3c(O)c2C(=O)[C@H]1O[C@H]1C[C@@H](O[C@H]2C[C@@H](O[C@H]3C[C@](C)(O)[C@H](O)[C@@H](C)O3)[C@H](O)[C@@H](C)O2)[C@H](O)[C@@H](C)O1` (stereo partly specified) was tested. Which maximum recommended daily dose (mmol/kg-bw/day) [1] did it give?
A: 2.76e-05

Q: With `C[C@H](CCC(=O)O)[C@H]1CC[C@H]2[C@@H]3[C@@H](O)C[C@@H]4C[C@H](O)CC[C@]4(C)[C@H]3CC[C@]12C` as the molecule, how does the maximum recommended daily dose (mmol/kg-bw/day) (TherapeuticCategory: anticholelithogenic) read?
A: 0.0255

Q: For `CCCCc1ccc(C(=O)O)nc1`, which maximum recommended daily dose (mmol/kg-bw/day) (TherapeuticCategory: none) is on record?
A: 0.0418

Q: `CC(N)C12CC3CC(CC(C3)C1)C2` (stereo unspecified) was tested. Which maximum recommended daily dose (mmol/kg-bw/day) (TherapeuticCategory: antiviral) did it give?
A: 0.0186

Q: For `C[C@]12COC(=O)C[C@@H]1CC[C@@H]1[C@@H]2CC[C@@]2(C)[C@H]1CC[C@]2(C)O`, which maximum recommended daily dose (mmol/kg-bw/day) (TherapeuticCategory: androgen) is on record?
A: 0.00109

Q: Which maximum recommended daily dose (mmol/kg-bw/day) (TherapeuticCategory: carbonic anhydrase inhibitor) does the source give for `NS(=O)(=O)c1cc(Cl)c(Cl)c(S(N)(=O)=O)c1` here?
A: 0.0109

Q: Which maximum recommended daily dose (mmol/kg-bw/day) (TherapeuticCategory: anticonvulsant) does the source give for `CCC1(CC)C(=O)NC(=O)N(C)C1=O` here?
A: 0.0252

Q: `CN1c2ccccc2Sc2ccc(CC(=O)O)cc21` was tested. Which maximum recommended daily dose (mmol/kg-bw/day) (TherapeuticCategory: anti inflammatory) did it give?
A: 0.0461

Q: How did the maximum recommended daily dose (mmol/kg-bw/day) [2] turn out when `NCCC[C@H](N)CC(=O)N[C@H]1CNC(=O)[C@H]([C@H]2C[C@H](O)NC(N)=N2)NC(=O)/C(=C/NC(N)=O)NC(=O)[C@H](CO)NC(=O)[C@H](CO)NC1=O` (β3hOrn-[Dap]SS[ΔAla(Z-3-ureido)][X1]; lactam 1-C) was run?
A: 0.0973

Q: How did the maximum recommended daily dose (mmol/kg-bw/day) (TherapeuticCategory: anthelmintic) turn out when `CC[C@H](C)[C@H]1O[C@]2(CC[C@@H]1C)C[C@@H]1C[C@@H](C/C=C(\C)[C@@H](O[C@H]3C[C@H](OC)[C@@H](O[C@H]4C[C@H](OC)[C@@H](O)[C@H](C)O4)[C@H](C)O3)[C@@H](C)/C=C/C=C3\CO[C@@H]4[C@H](O)C(C)=C[C@@H](C(=O)O1)[C@]34O)O2` was run?
A: 0.000171

Q: For `CN(C)[C@@H]1C(=O)C(C(N)=O)=C(O)[C@@]2(O)C(=O)C3=C(O)c4c(O)cccc4[C@@](C)(O)[C@H]3C[C@@H]12`, which maximum recommended daily dose (mmol/kg-bw/day) (TherapeuticCategory: antiamebic, antibacterial, antirickettsial) is on record?
A: 0.0749

Q: How did the maximum recommended daily dose (mmol/kg-bw/day) (TherapeuticCategory: diuretic, antihypertensive) turn out when `Cc1cccc(C)c1NC(=O)c1cc(S(N)(=O)=O)c(Cl)cc1O` was run?
A: 0.00188

Q: How did the maximum recommended daily dose (mmol/kg-bw/day) (TherapeuticCategory: antihistaminic, antipruritic) turn out when `CN(C)CCC(c1ccccc1)c1ccccn1` (stereo unspecified) was run?
A: 0.0026

Q: For `S=c1nc[nH]c2nc[nH]c12`, which maximum recommended daily dose (mmol/kg-bw/day) [1] is on record?
A: 0.0164

Q: `NC[C@H](O)c1ccc(O)c(O)c1` was tested. Which maximum recommended daily dose (mmol/kg-bw/day) (TherapeuticCategory: adrenergic, antihypotensive) did it give?
A: 0.000394

Q: Which maximum recommended daily dose (mmol/kg-bw/day) [2] does the source give for `NNC(=O)c1ccncc1` here?
A: 0.0729

Q: For `CC(=O)Nc1nnc(S(N)(=O)=O)s1`, which maximum recommended daily dose (mmol/kg-bw/day) (TherapeuticCategory: carbonic anhydrase inhibitor, diuretic) is on record?
A: 0.0751

Q: For `O=c1[nH]cnc2[nH]ncc12`, which maximum recommended daily dose (mmol/kg-bw/day) (TherapeuticCategory: antiurolithic) is on record?
A: 0.0977

Q: How did the maximum recommended daily dose (mmol/kg-bw/day) (TherapeuticCategory: antipsychotic) turn out when `CCC(=O)c1ccc2c(c1)N(CCCN1CCN(CCO)CC1)c1ccccc1S2` was run?
A: 0.0157

Q: How did the maximum recommended daily dose (mmol/kg-bw/day) (TherapeuticCategory: analgesic) turn out when `CN1CC[C@]23c4c5ccc(O)c4O[C@H]2C(=O)CC[C@H]3[C@H]1C5` was run?
A: 0.0014

Q: With `O=C(Cn1cnnn1)N[C@@H]1C(=O)N2C(C(=O)O)=C(CSc3nncs3)CS[C@H]12` as the molecule, how does the maximum recommended daily dose (mmol/kg-bw/day) [2] read?
A: 0.151

Q: For `Nc1nc2ncc(CNc3ccc(C(=O)N[C@@H](CCC(=O)O)C(=O)O)cc3)nc2c(=O)[nH]1`, which maximum recommended daily dose (mmol/kg-bw/day) (TherapeuticCategory: hematopoetic) is on record?
A: 3.01e-05

Q: Which maximum recommended daily dose (mmol/kg-bw/day) (TherapeuticCategory: anticholinergic, antiparkinsonian) does the source give for `OC(CCN1CCCCC1)(c1ccccc1)C1CCCCC1` (stereo unspecified) here?
A: 0.000829

Q: Which maximum recommended daily dose (mmol/kg-bw/day) [1] does the source give for `Nc1nc(F)nc2c1ncn2[C@@H]1O[C@H](COP(=O)(O)O)[C@@H](O)[C@@H]1O` here?
A: 0.00185

Q: For `CO[C@@]1(NC(=O)CSCC#N)C(=O)N2C(C(=O)O)=C(CSc3nnnn3C)CS[C@@H]21`, which maximum recommended daily dose (mmol/kg-bw/day) [2] is on record?
A: 0.212

Q: For `NC(=O)OCC(O)COc1ccc(Cl)cc1` (stereo unspecified), which maximum recommended daily dose (mmol/kg-bw/day) (TherapeuticCategory: topical antifungal) is on record?
A: 0.163

Q: For `CC(C)COC(=O)c1ccc(N)cc1`, which maximum recommended daily dose (mmol/kg-bw/day) (TherapeuticCategory: topical anesthetic) is on record?
A: 0.0345

Q: `CCCC(C)C1(CC)C(=O)NC(=S)NC1=O` (stereo unspecified) was tested. Which maximum recommended daily dose (mmol/kg-bw/day) (TherapeuticCategory: short acting anesthetic) did it give?
A: 0.0172

Q: For `CC(=O)OCC(=O)[C@@]1(OC(=O)c2ccco2)[C@H](C)C[C@H]2[C@@H]3CCC4=CC(=O)C=C[C@]4(C)[C@@]3(F)[C@@H](O)C[C@@]21C`, which maximum recommended daily dose (mmol/kg-bw/day) (TherapeuticCategory: glucocorticoid, anti inflammatory) is on record?
A: 0.000284

Reference: PubChem BioAssay AID1195 (EPA DSSTox, 2008)
